Drawing on patent US11299494B2, “Substituted imidazo[1,2-b]pyridazines as interleukin-23 and interferon-α modulators” (BRISTOL-MYERS SQUIBB COMPANY, priority 2016, dated 2022), this text covers IC50 and EC50 for 22 compounds.

As usually defined, the IC50 is the midpoint of a concentration-inhibition curve. By EC50 is commonly meant the midpoint of the concentration-response curve. A higher EC50 goes with a need for much substance.

The test system of test [1] is IL-23 Kit225 Reporter (Kit225 T cells with STAT-dependent luciferase reporter). Briefly: Kit225 T cell assay, IL-23 stimulated STAT-dependent luciferase reporter. Type of test: cell-based. As to conditions: 20 ng/mL human recombinant IL-23, 5-6 hours. Here is the method: (§1) Kit225 T cells with a stably-integrated STAT-dependent luciferase reporter were plated in RPMI (GIBCO) containing 10% heat-inactivated FBS (GIBCO) and 100 U/mL PenStrep (GIBCO). The cells were then stimulated with either 20 ng/mL human recombinant IL-23 or 200 U/mL human recombinant IFNα (PBL InterferonSource) for 5-6 hours. Luciferase expression was measured using the STEADY-GLO® Luciferase Assay System (PROMEGA®) according to the manufacturer's instructions. Inhibition data were calculated by comparison to no inhibitor control wells for 0% inhibition and non-stimulated control wells for 100% inhibition. Dose response curves were generated to determine the concentration required to inhibit 50% of cellular response (IC50) as derived by non-linear regression analysis.

The subject of test [2] is IFNa Kit225 Reporter (Kit225 T cells with STAT-dependent luciferase reporter). Briefly: Kit225 T cell assay, IFNα stimulated STAT-dependent luciferase reporter. Type of test: cell-based. As to conditions: 200 U/mL human recombinant IFNα, 5-6 hours. Here is the method:
as §1
Background: Reporter assays use an easily measured gene product as a stand-in for the process of interest.

In test [3] the target is T1, human Tyk2 (amino acids 575-869, His-tagged) (Homo sapiens, UniProt P29597).
T1 construct: made in house
Nature of the test: Probe displacement assay (scintillation proximity, radiolabeled probe). The note with it: 2.5 nM Tyk2 (575-869), 40 nM tritiated probe, 30 minutes at room temperature. Type of test: binding. Here is the method: The probe displacement assay is conducted as follows: In a […], test compounds along with recombinantly expressed His-tagged protein corresponding to amino acids 575-869 of human Tyk2 (sequence shown below) at 2.5 nM, 40 nM ((R)—N-(1-(3-(8-methyl-5-(methylamino)-8H-imidazo[4,5-d]thiazolo[5,4-b]pyridin-2-yl)phenyl)ethyl)-2-([^3H]methylsulfonyl)benzamide) (preparation described below) and 80 μg/mL Copper His-Tag scintillation proximity assay beads (Perkin Elmer, Catalog #RPNQ0095) in 50 mM HEPES, pH 7.5, containing 100 μg/mL bovine serum albumin and 5% DMSO were incubated for 30 minutes at room temperature. The amount of radiolabeled probe (preparation described below) bound to Tyk2 was then quantified by scintillation counting, and the inhibition by the test compound calculated by comparison to wells either with no inhibitor (0% inhibition) or without Tyk2 (100% inhibition). The IC50 value is defined as the concentration of test compound required to inhibit radiolabeled probe binding by 50%.
Protein Sequence of recombinant Hig-tagged Tyk2 (575-869):
The preparation of radiolabeled probe, (R)—N-(1-(3-(8-methyl-5-(methylamino)-8H-imidazo[4,5-d]thiazolo[5,4-b]pyridin-2-yl)phenyl)ethyl)-2-([^3H]methylsulfonyl)benzamide, was performed as described below:
2-([^3H]methylsulfonyl)benzoic acid: 2-Mercaptobenzoic acid (2.3 mg, 0.015 mmol) and cesium carbonate (2 mg, 0.006 mmol) were added to a 5 mL round-bottomed flask. The flask was attached to a ported glass vacuum line and anhydrous DMF (0.5 mL) was introduced with magnetic stirring. An ampoule of tritiated methyl iodide (200 mCi, Perkin-Elmer lot 3643419) was added to the reaction flask and stirring was maintained at rt for 3 h. In-process HPLC analysis with radiometric detection indicated 80% conversion to the desired product by comparison with authentic standard. Without purification, the crude product was reacted with mCPBA (10 mg, 0.058 mmol) pre-dissolved in CH2Cl2 (1 mL) at room temperature with stirring. The reaction was stirred for 7 h and additional mCPBA (10 mg, 0.058 mmol) was added. The reaction was stirred for approximately 24 h and HPLC analysis indicated 35-40% conversion to the desired […] product. The crude product was purified by semi-preparative HPLC (Luna Sum C18 (10×250 cm); A: MeOH/H2O=15/85 (0.1% TFA); B: MeOH; 270 nm; 0-8 min 0% B 1 ml/min; 8-10 min 0% B 1-3 ml/min; 10-55 min 0% B 3 ml/min; 55-65 min 0-10% B 3 ml/min; 65-75 min 10-50% B 3 ml/min; 75-80 min 50-100% B 3 ml/min) to give 81 mCi (40% radiochemical yield) of 2-([^3H]methylsulfonyl)benzoic acid product identified by its HPLC co-elution with an authentic standard. The radiochemical purity was measured by HPLC to be 99% (Luna 5u C18 (4.6×150 cm); A: H2O (0.1% TFA); B: MeOH; 1.2 ml/min; 270 nm; 0-10 min 20% B; 10-15 min 20-100% B; 15-25 min 100% B. The product was dissolved in anhydrous acetonitrile to give a final solution activity of 5.8 mCi/mL. (R)—N-(1-(3-(8-methyl-5-(methylamino)-8H-imidazo[4,5-d]thiazolo[5,4-b]pyridin-2-yl)phenyl)ethyl)-2-([^3H]methylsulfonyl)benzamide: A solution of 2-([^3H]methylsulfonyl)benzoic acid (23.2 mCi) in acetonitrile was added to a 5 mL round-bottomed flask which was then attached to a vacuum line and carefully evaporated to dryness. (R)-2-(3-(1-aminoethyl)phenyl)-N,8-dimethyl-8H-imidazo[4,5-d]thiazolo[5,4-b]pyridin-5-amine (prepared as described in WO 2004/106293 and Dyckman et al., Bioorganic and Medicinal Chemistry Letters, 383-386 (2011)) (1.1 mg, 0.0033 mmol) and PyBOP (2 mg, 0.0053 mmol) dissolved in anhydrous DMF (1.5 mL) were added to the flask followed by N,N-diisopropylethylamine (0.010 mL). The resulting clear solution was stirred at room temperature for 18 h. […]
Background: In a scintillation proximity assay essentially only radioactivity close to the scintillant gives light.

T1 sequence (P29597 with tags, fused parts or gaps): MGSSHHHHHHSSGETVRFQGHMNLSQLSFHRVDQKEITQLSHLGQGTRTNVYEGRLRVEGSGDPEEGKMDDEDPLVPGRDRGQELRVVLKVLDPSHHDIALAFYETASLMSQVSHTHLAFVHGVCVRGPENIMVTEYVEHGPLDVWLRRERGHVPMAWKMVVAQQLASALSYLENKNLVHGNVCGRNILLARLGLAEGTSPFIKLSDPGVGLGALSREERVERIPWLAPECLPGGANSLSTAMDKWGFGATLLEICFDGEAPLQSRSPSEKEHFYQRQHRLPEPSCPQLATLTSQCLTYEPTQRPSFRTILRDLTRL

As to `CNc1cc(-n2cc(C(=O)NCC(C)(C)O)c3ccccc32)nn2c(C(=O)NC3CC3)cnc12` [Example 1, N-cyclopropyl-6-(3-((2-hydroxy-2-methylpropyl)carbamoyl)-1H-indol-1-yl)-8-(methylamino)imidazo[1,2-b]pyridazine-3-carboxamide], the IC50 came out at 2100 nM in test [1] and 1320 nM in test [2]. The compound also displayed an EC50 in test [3] of 22 nM.

On to `CCNC(=O)c1cn(-c2cc(NC)c3ncc(C(=O)NC4CC4)n3n2)c2ccccc12` [Example 2], for which the IC50 came out at 813 nM in test [1] and 1120 nM in test [2]. In test [3], the EC50 came to 5 nM.

Regarding `CNc1cc(-n2cc(C(=O)N3CCC(O)CC3)c3ccccc32)nn2c(C(=O)NC3CC3)cnc12` [Example 3], the IC50 in test [1] was determined as 12500 nM; in test [2] it was 4790 nM. The EC50 in test [3] is 19 nM.

Consider `CNc1cc(-n2cc(C(=O)Nc3cccnc3)c3ccccc32)nn2c(C(=O)NC3CC3)cnc12` [Example 4], for which the IC50 in test [1] turned out to be 1890 nM; in test [2] it was 1230 nM. Besides, in test [3], the EC50 turned out to be 22 nM.

In the case of `CNc1cc(-n2cc(C(=O)Nc3ccccc3)c3ccccc32)nn2c(C(=O)NC3CC3)cnc12` [Example 5], the IC50 amounted to 1960 nM in test [1] and 4210 nM in test [2]. Further, the EC50 in test [3] is 25 nM.

As for `CNc1cc(-n2cc(C(=O)NCCC(N)=O)c3ccccc32)nn2c(C(=O)NC3CC3)cnc12` [Example 6], the IC50 was 12500 nM in test [1] and 9550 nM in test [2]. The compound also yielded an EC50 in test [3] of 31 nM.

Turning to `CNc1cc(-n2cc(C(=O)NCC(C)C)c3ccccc32)nn2c(C(=O)NC3CC3)cnc12` [Example 7], the IC50 came out at 1640 nM in test [1] and 924 nM in test [2]. In test [3], this compound yielded an EC50 of 35 nM.

Consider `CNc1cc(-n2cc(C(=O)NCCOC)c3ccccc32)nn2c(C(=O)NC3CC3)cnc12` [Example 8], for which the values for the IC50 in test [1] and in test [2] were 574 nM and 537 nM, respectively. Also, the EC50 in test [3] turned out to be 37 nM.

Turning to `CNc1cc(-n2cc(C(=O)NC(C)C)c3ccccc32)nn2c(C(=O)NC3CC3)cnc12` [Example 9], the IC50 worked out at 3090 nM in test [1] and 1460 nM in test [2]. A half-maximal effect in test [3] (EC50) was put at 40 nM.

As for `CNc1cc(-n2cc(C(=O)NCC(C)(C)O)c3ccccc32)nn2c(C(=O)NC3CCC3)cnc12` [Example 10], the IC50 stood at 1100 nM in test [1] and 882 nM in test [2]. Further, the 50% effective concentration (EC50) in test [3] was determined as 6 nM.

Regarding `CNc1cc(-n2cc(C(=O)NC3CCOCC3)c3ccccc32)nn2c(C(=O)NC3CCC3)cnc12` [Example 11], the IC50 in test [1] came to 1370 nM; in test [2], 689 nM. This compound showed an EC50 in test [3] of 10 nM.

On to `CNc1cc(-n2cc(C(=O)N3CCOCC3)c3ccccc32)nn2c(C(=O)NC3CCC3)cnc12` [Example 12], for which the IC50 is 1740 nM in test [1] and 1290 nM in test [2]. This compound also registered a 50% effective concentration (EC50) in test [3] of 18 nM.

As for `CNc1cc(-n2cc(C(=O)NCC(C)(C)O)c3cccnc32)nn2c(C(=O)NC3CC3)cnc12` [Example 13], the values for the IC50 in test [1] and in test [2] were 294 nM and 1250 nM, respectively. In test [3], this compound gave an EC50 of 25 nM.

On to `CNc1cc(-n2cnc3ccccc32)nn2c(C(=O)NC3CC3)cnc12` [Example 14], for which the figures for the IC50 in test [1] and in test [2] were 3640 nM and 1750 nM, respectively. Moreover, the EC50 in test [3] is 29 nM.

Consider `CNc1cc(-n2ccc3c(OC)cccc32)nn2c(C(=O)NC3CC3)cnc12` [Example 15], for which the values for the IC50 in test [1] and in test [2] were 649 nM and 2320 nM, respectively. Also, the EC50 in test [3] is 46 nM.

With `CNc1cc(-n2ccc3ncccc32)nn2c(C(=O)NC3CC3)cnc12` [Example 16], the IC50 was 947 nM in test [1] and 1140 nM in test [2]. Further, a half-maximal response in test [3] (EC50) required 123 nM.

On to `CNC(=O)c1nn(-c2cc(NC)c3ncc(C(=O)NC4CC4)n3n2)c2ccccc12` [Example 17, N-cyclopropyl-8-(methylamino)-6-(3-(methylcarbamoyl)-1H-indazol-1-yl)imidazo[1,2-b]pyridazine-3-carboxamide], for which the IC50 in test [1] came out at 355 nM; in test [2], 270 nM. In test [3], the EC50 amounted to 16 nM.

Turning to `CNc1cc(-n2nc(C(=O)N3CCOCC3)c3ccccc32)nn2c(C(=O)NC3CC3)cnc12` [Example 18], the IC50 in test [1] came to 700 nM; in test [2] it was 511 nM. Also, the response in test [3] was half-maximal at 40 nM (EC50).

As for `CNc1cc(-n2nc(C(=O)N(C)C)c3ccccc32)nn2c(C(=O)NC3CC3)cnc12` [Example 19], the values for the IC50 in test [1] and in test [2] were 511 nM and 474 nM, respectively. This compound registered an EC50 in test [3] of 61 nM.

Consider `CNc1cc(-n2nc(C(=O)NCC(C)(C)O)c3ccccc32)nn2c(C(=O)NC3CC3)cnc12` [Example 20], for which the IC50 stood at 926 nM in test [1] and 475 nM in test [2]. The compound further displayed an EC50 in test [3] of 75 nM.

As for `CNc1cc(-n2ccc3ccccc32)nn2c(C(=O)NC3CC3)cnc12` [Example 21], the IC50 was 661 nM in test [1] and 433 nM in test [2]. The compound also yielded an EC50 in test [3] of 13 nM.

With `CNc1cc(-n2cc(C(=O)O)c3ccccc32)nn2c(C(=O)NC3CCC3)cnc12` [Example 22], the IC50 in test [1] and in test [2] was 12500 nM in each case. For the same compound, the EC50 in test [3] came out at 48 nM.
